Legend:
[1] = Drug concentration in C57BL/6 mouse plasma at 3 mg/kg, po measured after 1 hr; format: ADME, organism-based
Cytochrome P450 2C9 = Cytochrome P450 2C9 (Homo sapiens, UniProt P11712); test: Inhibition of CYP2C9 (unknown origin); format: ADME
[2] = Tmax in Sprague-Dawley rat at 3 mg/kg, po and 1 mg/kg, iv measured upto 24 hrs by HPLC-MS analysis; format: ADME, organism-based; conditions: in vivo
[3] = Metabolic stability in mouse liver microsomes assessed as intrinsic clearance at 1 uM incubated for 30 mins in presence of NADPH by LC-MS/MS analysis; format: ADME, Microsome; conditions: read-out: CLH
[4] = Metabolic stability in human liver microsomes assessed as intrinsic clearance at 1 uM incubated for 30 mins in presence of NADPH by LC-MS/MS analysis; format: ADME, Microsome; conditions: read-out: CLH
[5] = Drug concentration in C57BL/6 mouse plasma at 10 mg/kg, po measured after 1 hr; format: ADME, organism-based
[6] = Drug concentration in C57BL/6 mouse plasma at 1 mg/kg, po measured after 3 hrs; format: ADME, organism-based
Cytochrome P450 2D6 = Cytochrome P450 2D6 (Homo sapiens, UniProt P10635); test: Inhibition of CYP2D6 (unknown origin); format: ADME
[7] = Bioavailability in C57BL/6 mouse at 1 mg/kg, iv and 3 mg/kg, ip measured upto 24 hrs by HPLC-MS analysis; format: ADME, organism-based; conditions: in vivo
[8] = Drug concentration in C57BL/6 mouse brain at 3 mg/kg, po measured after 8 hrs; format: ADME, organism-based; conditions: read-out: Ct
[9] = Ratio of drug concentration in brain to plasma in Sprague-Dawley rat at 1 mg/kg, iv measured at 1 hr by HPLC-MS analysis; format: ADME, organism-based; conditions: brain and plasma, read-out: BPR
[10] = Efflux ratio of apparent permeability across basolateral to apical side over apical to basolateral side in MDCK-MDR1 cells; format: ADME, cell-based, Canis lupus familiaris; conditions: dog
[11] = Phototoxicity against mouse BALB/3T3 clone A31 cells assessed as reduction in cell viability incubated for 1 hr followed by irradiated with 5 J/cm^2 of light dose measured after 24 hrs by neutral red uptake assay; format: toxicity, cell-based; conditions: balb/3t3 clone a31, 1 h
[12] = Ratio of drug concentration in brain to plasma in C57BL/6 mouse at 1 mg/kg, po measured after 24 hrs; format: ADME, organism-based; conditions: read-out: BPR
[13] = Half life in C57BL/6 mouse at 1 mg/kg, iv and 3 mg/kg, ip measured upto 24 hrs by HPLC-MS analysis; format: ADME, organism-based; conditions: in vivo
[14] = Ratio of drug concentration in brain to plasma in C57BL/6 mouse at 3 mg/kg, po measured at 1 hr; format: ADME, organism-based; conditions: read-out: BPR
[15] = Ratio of drug concentration in brain to plasma in C57BL/6 mouse at 10 mg/kg, po measured at 1 hr; format: ADME, organism-based; conditions: brain and plasma, read-out: BPR
[16] = molecular target: Serine/threonine-protein kinase ATR (Homo sapiens, UniProt Q13535); test: Inhibition of ATR (unknown origin)-driven CHK1 phosphorylation
[17] = Ratio of drug concentration in brain to plasma in C57BL/6 mouse at 10 mg/kg, po measured at 24 hrs; format: ADME, organism-based; conditions: brain and plasma, read-out: BPR
[18] = molecular target: Phosphatidylinositol 4,5-bisphosphate 3-kinase catalytic subunit alpha isoform (Homo sapiens, UniProt P42336); test: Inhibition of PI3Kalpha (unknown origin)
[19] = MRT(0 to t) in C57BL/6 mouse at 1 mg/kg, iv and 3 mg/kg, ip measured upto 24 hrs by HPLC-MS analysis; format: ADME, organism-based; conditions: in vivo
[20] = Volume of distribution at steady state in Sprague-Dawley rat at 3 mg/kg, po and 1 mg/kg, iv measured upto 24 hrs by HPLC-MS analysis; format: ADME, organism-based; conditions: in vivo
[21] = In vivo inhibition of phosphorylation of AKT at serine 473 residues in C57BL/6 mouse brain at 30 mg/kg, po measured after 24 hrs by Western blotting analysis; format: organism-based
[22] = Plasma protein binding in Sprague-Dawley rat at 5 uM measured for 4 hrs by equilibrium dialysis method based LC/MS/MS analysis; format: ADME, cell-free; conditions: read-out: PPB (converted)
[23] = Genotoxicity in human TK6 cells assessed as micronuclei formation in absence of S9 fraction by micronucleus test; format: toxicity, cell-based
[24] = Tmax in cynomolgus monkey at 1 mg/kg, po and 0.1 mg/kg, iv measured upto 24 hrs by LC/MS/MS analysis; format: ADME, organism-based, Macaca fascicularis; conditions: in vivo
Cytochrome P450 3A4 = Cytochrome P450 3A4 (Homo sapiens, UniProt P08684); test: Inhibition of CYP3A4 (unknown origin); format: ADME
[25] = Cmax in Sprague-Dawley rat at 3 mg/kg, po measured upto 24 hrs by HPLC-MS analysis; format: ADME, organism-based; set-up: dose 3 mg/kg, time < 24 hrs, route po; conditions: in vivo
[26] = Genotoxicity in human TK6 cells assessed as micronuclei formation in presence of S9 fraction by micronucleus test; format: toxicity, subcellular
[27] = Ratio of drug concentration in brain to plasma in C57BL/6 mouse at 30 mg/kg, po measured at 24 hrs; format: ADME, organism-based; conditions: brain and plasma, read-out: BPR
[28] = Metabolic stability in dog liver microsomes assessed as intrinsic clearance at 1 uM incubated for 30 mins in presence of NADPH by LC-MS/MS analysis; format: ADME, Canis lupus familiaris, Microsome; conditions: read-out: CLH
[29] = AUC(0 to t) in cynomolgus monkey at 1 mg/kg, po measured upto 24 hrs by LC/MS/MS analysis; format: ADME, organism-based, Macaca fascicularis; set-up: time < 24 hrs, dose 1 mg/kg, route po; conditions: in vivo
[30] = Drug concentration in C57BL/6 mouse brain at 30 mg/kg, po measured after 3 hrs; format: ADME, organism-based; conditions: read-out: Ct
[31] = Volume of distribution at steady state in C57BL/6 mouse at 1 mg/kg, iv and 3 mg/kg, ip measured upto 24 hrs by HPLC-MS analysis; format: ADME, organism-based; conditions: in vivo, read-out: Vdss
[32] = MRT(0 to t) in Sprague-Dawley rat at 3 mg/kg, po and 1 mg/kg, iv measured upto 24 hrs by HPLC-MS analysis; format: ADME, organism-based; conditions: in vivo
[33] = Ratio of drug concentration in brain to plasma in C57BL/6 mouse at 1 mg/kg, po measured at 3 hrs; format: ADME, organism-based; conditions: read-out: BPR
[34] = Drug concentration in C57BL/6 mouse plasma at 3 mg/kg, po measured after 8 hrs; format: ADME, organism-based
[35] = Metabolic stability in cynomolgus monkey liver microsomes assessed as intrinsic clearance at 1 uM incubated for 30 mins in presence of NADPH by LC-MS/MS analysis; format: ADME, Macaca fascicularis, Microsome; conditions: read-out: CLH
[36] = Protein binding in Sprague-Dawley rat brain at 5 uM measured for 4 hrs by equilibrium dialysis method based LC/MS/MS analysis; format: ADME, tissue-based; conditions: read-out: PB (converted)
[37] = Drug concentration in C57BL/6 mouse plasma at 30 mg/kg, po measured after 3 hrs; format: ADME, organism-based
[38] = AUC(0 to t) in Beagle dog at 1 mg/kg, po measured upto 24 hrs by LC/MS/MS analysis; format: ADME, organism-based, Canis lupus familiaris; set-up: time < 24 hrs, dose 1 mg/kg, route po; conditions: in vivo
[39] = Tmax in Beagle dog at 1 mg/kg, po and 0.3 mg/kg, iv measured upto 24 hrs by LC/MS/MS analysis; format: ADME, organism-based, Canis lupus familiaris; conditions: in vivo
[40] = AUC(0 to t) in cynomolgus monkey at 0.3 mg/kg, po measured upto 24 hrs by LC/MS/MS analysis; format: ADME, organism-based, Macaca fascicularis; set-up: dose 0.3 mg/kg, time < 24 hrs, route po; conditions: in vivo
[41] = Cmax in Beagle dog at 1 mg/kg, po measured upto 24 hrs by LC/MS/MS analysis; format: ADME, organism-based, Canis lupus familiaris; set-up: dose 1 mg/kg, time < 24 hrs, route po; conditions: in vivo

Sequence of Phosphatidylinositol 4,5-bisphosphate 3-kinase catalytic subunit alpha isoform (P42336 whole entry, canonical isoform): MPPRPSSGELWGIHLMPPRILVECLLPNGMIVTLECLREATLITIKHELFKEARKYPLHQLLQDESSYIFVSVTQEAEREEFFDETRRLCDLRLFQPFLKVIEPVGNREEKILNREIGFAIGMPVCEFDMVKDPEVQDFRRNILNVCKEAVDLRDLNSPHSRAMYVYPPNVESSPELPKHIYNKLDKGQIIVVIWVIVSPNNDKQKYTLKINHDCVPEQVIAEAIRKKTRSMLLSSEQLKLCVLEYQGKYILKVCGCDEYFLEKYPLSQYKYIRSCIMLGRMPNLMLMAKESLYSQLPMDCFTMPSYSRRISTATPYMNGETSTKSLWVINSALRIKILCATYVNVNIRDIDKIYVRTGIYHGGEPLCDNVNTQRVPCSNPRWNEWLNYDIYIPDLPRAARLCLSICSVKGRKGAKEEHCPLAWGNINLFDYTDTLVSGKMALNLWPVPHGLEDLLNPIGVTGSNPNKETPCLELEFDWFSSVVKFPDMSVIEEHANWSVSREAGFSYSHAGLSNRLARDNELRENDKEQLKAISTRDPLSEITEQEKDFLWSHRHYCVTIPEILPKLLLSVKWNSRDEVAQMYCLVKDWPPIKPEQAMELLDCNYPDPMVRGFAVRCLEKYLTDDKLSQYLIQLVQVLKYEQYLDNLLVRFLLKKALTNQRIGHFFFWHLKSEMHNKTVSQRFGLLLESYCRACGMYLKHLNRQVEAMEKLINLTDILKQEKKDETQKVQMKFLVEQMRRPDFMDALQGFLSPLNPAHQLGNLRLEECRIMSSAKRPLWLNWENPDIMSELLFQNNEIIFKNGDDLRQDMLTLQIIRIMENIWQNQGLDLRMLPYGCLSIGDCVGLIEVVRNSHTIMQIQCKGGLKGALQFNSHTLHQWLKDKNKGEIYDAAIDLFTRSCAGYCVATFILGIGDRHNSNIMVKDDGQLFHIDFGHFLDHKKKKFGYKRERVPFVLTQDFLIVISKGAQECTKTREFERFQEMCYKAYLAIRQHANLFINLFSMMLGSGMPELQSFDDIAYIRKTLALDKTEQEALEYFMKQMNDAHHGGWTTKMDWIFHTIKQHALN
Sequence of Serine/threonine-protein kinase ATR (Q13535 whole entry): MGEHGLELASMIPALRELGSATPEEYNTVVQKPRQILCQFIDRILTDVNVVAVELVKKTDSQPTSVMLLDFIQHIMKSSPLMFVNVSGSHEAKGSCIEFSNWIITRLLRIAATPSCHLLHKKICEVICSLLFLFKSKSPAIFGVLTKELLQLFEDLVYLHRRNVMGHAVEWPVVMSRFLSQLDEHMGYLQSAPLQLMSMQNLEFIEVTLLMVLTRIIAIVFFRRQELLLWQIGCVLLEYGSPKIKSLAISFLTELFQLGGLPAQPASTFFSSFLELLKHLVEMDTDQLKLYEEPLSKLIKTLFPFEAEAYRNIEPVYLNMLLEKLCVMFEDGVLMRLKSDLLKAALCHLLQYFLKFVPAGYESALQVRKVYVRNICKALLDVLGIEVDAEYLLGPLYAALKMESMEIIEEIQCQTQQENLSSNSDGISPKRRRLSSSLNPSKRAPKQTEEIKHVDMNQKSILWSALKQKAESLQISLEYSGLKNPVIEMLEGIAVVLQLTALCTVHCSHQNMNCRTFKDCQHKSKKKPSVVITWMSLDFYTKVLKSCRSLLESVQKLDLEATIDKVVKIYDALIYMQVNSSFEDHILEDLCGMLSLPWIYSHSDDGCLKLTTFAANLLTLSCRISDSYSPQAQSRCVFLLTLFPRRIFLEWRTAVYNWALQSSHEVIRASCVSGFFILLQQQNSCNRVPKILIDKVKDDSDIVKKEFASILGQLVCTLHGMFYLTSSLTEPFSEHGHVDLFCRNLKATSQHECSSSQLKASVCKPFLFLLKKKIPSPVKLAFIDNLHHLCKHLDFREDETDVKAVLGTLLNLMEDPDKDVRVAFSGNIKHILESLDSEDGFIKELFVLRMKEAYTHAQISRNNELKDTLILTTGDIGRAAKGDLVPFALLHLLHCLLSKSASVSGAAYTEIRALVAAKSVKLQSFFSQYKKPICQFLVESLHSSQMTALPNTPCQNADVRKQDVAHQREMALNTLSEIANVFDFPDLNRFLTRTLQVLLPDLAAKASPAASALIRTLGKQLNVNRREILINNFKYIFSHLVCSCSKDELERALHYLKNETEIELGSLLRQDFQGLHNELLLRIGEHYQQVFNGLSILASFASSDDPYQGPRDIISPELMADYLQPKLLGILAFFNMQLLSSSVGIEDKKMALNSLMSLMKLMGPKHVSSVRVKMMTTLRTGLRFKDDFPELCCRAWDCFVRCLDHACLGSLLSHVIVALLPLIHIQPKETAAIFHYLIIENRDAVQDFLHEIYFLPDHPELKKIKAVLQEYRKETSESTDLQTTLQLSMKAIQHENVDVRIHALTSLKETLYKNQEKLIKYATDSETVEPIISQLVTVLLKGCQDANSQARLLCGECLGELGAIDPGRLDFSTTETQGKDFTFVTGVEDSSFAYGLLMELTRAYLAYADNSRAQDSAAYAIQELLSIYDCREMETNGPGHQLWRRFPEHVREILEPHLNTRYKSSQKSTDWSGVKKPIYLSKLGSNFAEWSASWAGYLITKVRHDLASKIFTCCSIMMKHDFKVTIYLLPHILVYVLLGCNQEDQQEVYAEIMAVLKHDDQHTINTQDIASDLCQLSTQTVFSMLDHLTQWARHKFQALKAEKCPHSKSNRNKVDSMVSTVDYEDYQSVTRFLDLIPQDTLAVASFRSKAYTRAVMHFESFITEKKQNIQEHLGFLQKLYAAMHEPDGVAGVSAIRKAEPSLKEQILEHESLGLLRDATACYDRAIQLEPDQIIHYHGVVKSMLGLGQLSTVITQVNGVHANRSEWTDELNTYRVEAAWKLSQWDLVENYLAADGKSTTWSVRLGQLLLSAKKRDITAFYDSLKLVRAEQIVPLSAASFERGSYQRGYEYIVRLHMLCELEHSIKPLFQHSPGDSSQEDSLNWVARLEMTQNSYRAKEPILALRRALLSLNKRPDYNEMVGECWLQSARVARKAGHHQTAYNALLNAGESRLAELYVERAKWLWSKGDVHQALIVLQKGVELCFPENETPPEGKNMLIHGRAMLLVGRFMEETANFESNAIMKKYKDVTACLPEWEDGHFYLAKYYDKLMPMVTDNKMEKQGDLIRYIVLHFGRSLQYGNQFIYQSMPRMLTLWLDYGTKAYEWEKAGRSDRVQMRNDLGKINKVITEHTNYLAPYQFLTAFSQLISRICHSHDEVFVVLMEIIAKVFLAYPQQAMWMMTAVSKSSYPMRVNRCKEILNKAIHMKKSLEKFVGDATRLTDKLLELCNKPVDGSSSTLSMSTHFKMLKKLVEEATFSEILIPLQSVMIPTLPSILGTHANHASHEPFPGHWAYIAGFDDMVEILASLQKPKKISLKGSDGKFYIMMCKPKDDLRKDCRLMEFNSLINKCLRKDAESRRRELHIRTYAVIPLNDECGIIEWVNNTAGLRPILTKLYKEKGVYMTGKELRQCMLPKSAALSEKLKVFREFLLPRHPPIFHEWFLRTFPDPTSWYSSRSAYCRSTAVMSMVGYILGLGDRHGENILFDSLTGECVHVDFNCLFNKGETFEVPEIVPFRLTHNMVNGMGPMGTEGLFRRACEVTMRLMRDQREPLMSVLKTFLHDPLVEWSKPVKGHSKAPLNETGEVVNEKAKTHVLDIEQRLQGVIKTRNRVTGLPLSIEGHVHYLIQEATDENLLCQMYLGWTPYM
Sequence of Cytochrome P450 2C9 (P11712 whole entry): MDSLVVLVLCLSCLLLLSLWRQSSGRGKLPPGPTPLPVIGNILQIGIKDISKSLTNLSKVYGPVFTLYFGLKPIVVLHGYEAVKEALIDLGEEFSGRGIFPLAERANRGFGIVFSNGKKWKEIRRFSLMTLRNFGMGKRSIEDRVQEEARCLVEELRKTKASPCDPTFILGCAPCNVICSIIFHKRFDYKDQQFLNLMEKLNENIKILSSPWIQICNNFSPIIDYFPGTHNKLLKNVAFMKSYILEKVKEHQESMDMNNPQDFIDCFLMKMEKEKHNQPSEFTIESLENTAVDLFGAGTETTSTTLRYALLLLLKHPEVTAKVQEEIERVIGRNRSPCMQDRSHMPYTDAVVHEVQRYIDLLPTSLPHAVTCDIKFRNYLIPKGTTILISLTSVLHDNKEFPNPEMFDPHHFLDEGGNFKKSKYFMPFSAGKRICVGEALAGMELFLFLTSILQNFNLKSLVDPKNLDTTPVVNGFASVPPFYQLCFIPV
Sequence of Cytochrome P450 2D6 (P10635 whole entry): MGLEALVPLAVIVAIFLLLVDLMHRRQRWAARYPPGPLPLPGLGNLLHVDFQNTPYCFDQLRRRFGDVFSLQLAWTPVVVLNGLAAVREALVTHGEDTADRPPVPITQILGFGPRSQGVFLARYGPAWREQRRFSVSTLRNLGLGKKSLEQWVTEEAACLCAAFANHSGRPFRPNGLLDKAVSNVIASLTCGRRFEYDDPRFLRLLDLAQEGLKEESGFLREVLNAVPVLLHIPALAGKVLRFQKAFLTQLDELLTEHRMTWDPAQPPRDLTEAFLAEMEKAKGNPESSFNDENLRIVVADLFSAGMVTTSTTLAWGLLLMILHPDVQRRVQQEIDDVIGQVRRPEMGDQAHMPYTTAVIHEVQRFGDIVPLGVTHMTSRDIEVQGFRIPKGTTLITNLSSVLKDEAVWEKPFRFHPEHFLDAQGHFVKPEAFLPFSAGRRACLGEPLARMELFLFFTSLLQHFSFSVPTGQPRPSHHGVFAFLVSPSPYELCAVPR

Row | IC50 (Cytochrome P450 2C9) [µM] | Tmax [2] [h] | microsomal CLint at 1 µM [3] [µL/min/mg] | microsomal CLint at 1 µM [4] [µL/min/mg] | concentration at 1 h [5] [nM] | IC50 (Cytochrome P450 2D6) [µM] | bioavailability [7] [%] | Kp at 1 h [9] | efflux ratio [10] | half-life [13] [h] | Kp at 1 h [15] | IC50 [16] [µM] | IC50 [18] [µM] | MRT last at 24 h [19] [h] | Vdss [20] [L/kg] | fraction unbound at 4 h, 5 µM [22] | IC50 (Cytochrome P450 3A4) [µM] | Cmax [25] [nM] | Compound | Activity [11] | Activity [23] | other results
1 | > 50 | 1.5 | 13 | 3.4 | 4420 | > 50 | 112 | 0.35 | 0.87 | 2.7 | 0.97 | 14.4 | > 10 | 3.4 | 2.3 | 0.18 | > 50 | 1730 | C[C@@H]1COCCN1c1cc(N2CCOC[C@@H]2C)nc2[nH]c(-c3cscn3)nc12 | Toxic | Non-Toxic | concentration at 1 h [1]: 2750 nM; concentration at 3 h [6]: 674 nM; concentration at 8 h [8]: 341 nM; Kp at 24 h [12]: 1.91; Kp at 1 h [14]: 0.51; Kp at 24 h [17]: 0.62; inhibition (INH) [21]: Active; Tmax [24]: 1.2 h; Activity [26]: Non-Toxic; Kp at 24 h [27]: 0.66; microsomal CLint at 1 µM [28]: 10 µL/min/mg; AUC(0-t) at 24 h [29]: 3.75 µM·h; concentration at 3 h [30]: 6320 nM; Vd [31]: 2.8 L/kg; MRT last at 24 h [32]: 2.2 h; Kp at 3 h [33]: 0.36; concentration at 8 h [34]: 1190 nM; microsomal CLint at 1 µM [35]: 31 µL/min/mg; fraction unbound at 4 h, 5 µM [36]: 0.086; concentration at 3 h [37]: 8420 nM
2 | > 50 | 1.3 | 24 | 22 | 2480 | > 50 | 98 | 0.48 | 0.48 | 2 | 0.6 | 17.2 | > 10 | 2.3 | 0.7 | 0.134 | > 50 | 5050 | C[C@@H]1COCCN1c1cc(N2CCOC[C@@H]2C)nc2[nH]c(-c3ccccn3)nc12 | Non-Toxic | Non-Toxic | AUC(0-t) at 24 h [38]: 0.056 µM·h; Tmax [39]: 0.8 h; Activity [26]: Non-Toxic; Kp at 24 h [27]: 0.7; microsomal CLint at 1 µM [28]: 19 µL/min/mg; concentration at 3 h [30]: 2720 nM; Vd [31]: 2.6 L/kg; AUC(0-t) at 24 h [40]: 0.125 µM·h; MRT last at 24 h [32]: 2.3 h; microsomal CLint at 1 µM [35]: 115 µL/min/mg; fraction unbound at 4 h, 5 µM [36]: 0.035; Cmax [41]: 34 nM; concentration at 3 h [37]: 4160 nM
